Laboratory results published in article PMC10720369 (Frontiers in Plant Science, 2023).

Tested on: ScAMT3;3
Settings: labelled compound; 0-500 µM 15N-NH4+; 35-d-old N-starved plants; line 35S::ScAMT3;3 by results and Figure 4C (methods b28 say proScAMT3;3 line); residual qko uptake present; NH3 may be the transported

- Km: 271 µM
Compound: N [NH4+]
